Measurements taken from US9630894B2, “Energy efficient method and apparatus for the extraction of biomolecules from dilute aqueous solution” (DYNASEP INC., priority 2012, dated 2017).
Entries after “also recorded” stand apart in the source; their conditions may differ.

What was measured:
fermentation cultures [1] = assay: DME toxicity study: viability by colony forming units (CFU) after 24 hours; assay type: cell-based
Protocol: (§1) Toxicity studies were performed to determine the effects of DME on fermentation cultures. Cell growth, viability and solvent production were measured to determine what effect DME has on fermentation cultures. Cell growth was monitored by absorption measurements taken at 600 nm (A600). Viability was measured by counting the colony forming units (CFU) after 24 hours. Solvent production was quantified by HPLC.
(§2) The first round of testing was performed using media that had been sparged with DME gas at 23° C. The amount of DME absorbed into the media was measured by weight gain after sparging. […] Two control cultures were also used for direct comparison of cultures with and without the presence of DME.

fermentation cultures [2] = assay: DME toxicity study: solvent production / metabolite analysis by HPLC; assay type: cell-based; conditions: for Acetate concentration / Acetoin concentration / Acetone concentration / Butanol concentration / Butyrate concentration / Ethanol concentration / Glucose concentration: 196 hours after inoculation
Protocol: as §1, §2
A second round of testing was performed at lower DME concentrations. The concentration of DME varied from 0.7 wt. % to 2.9 wt. %. Cell densities were measured between 3 and 64 hours after inoculation. […] Based on the solvent measurements in Table 8 and Table 9 solvent production was also unaffected by DME at 0.7 wt. %. […] This is apparent after examination of the cell density and solvent production for samples 1-5, 2-1, 2-4 and 2-5 in comparison to the control samples 1-B and 2-B.

[3] = cited from earlier work
[4] = culture 2-1, weight % DME printed as ?

COC [DME, dimethyl ether]
CFU/ml after 24 hours (fermentation cultures [1]; [4]): 0 CFU/ml
CFU/ml after 24 hours (fermentation cultures [1]; culture 2-2, 3.92% DME): 4480 CFU/ml
CFU/ml after 24 hours (fermentation cultures [1]; culture 2-3, 3.72% DME): 130 CFU/ml
effect on solvent production (fermentation cultures [2]; DME at 0.7 wt. %): unaffected; also recorded: no noticeable effect
Metabolite conc. Final Acetate (fermentation cultures [2]; culture 1-2, 3.48% DME): 42.01 mM
Metabolite conc. Final Acetoin (fermentation cultures [2]; culture 1-2, 3.48% DME): 0.00 mM
Metabolite conc. Final Acetone (fermentation cultures [2]; culture 1-2, 3.48% DME): 0.00 mM
Metabolite conc. Final Butanol (fermentation cultures [2]; culture 1-2, 3.48% DME): 0.00 mM
Metabolite conc. Final Butyrate (fermentation cultures [2]; culture 1-2, 3.48% DME): 101.72 mM
Metabolite conc. Final Ethanol (fermentation cultures [2]; culture 1-2, 3.48% DME): 0.00 mM
Metabolite conc. Final Glucose (fermentation cultures [2]; culture 1-2, 3.48% DME): 410.70 mM
Acetate concentration (fermentation cultures [2]; culture 1-2, DME 18.1 g/L): 45.7 mM
Acetoin concentration (fermentation cultures [2]; culture 1-2, DME 18.1 g/L): 1.7 mM
Acetone concentration (fermentation cultures [2]; culture 1-2, DME 18.1 g/L): 4.9 mM
Butanol concentration (fermentation cultures [2]; culture 1-2, DME 18.1 g/L): 11.7 mM
Butyrate concentration (fermentation cultures [2]; culture 1-2, DME 18.1 g/L): 80.8 mM
Ethanol concentration (fermentation cultures [2]; culture 1-2, DME 18.1 g/L): 1.9 mM
Glucose concentration (fermentation cultures [2]; culture 1-2, DME 18.1 g/L): 381.5 mM
Metabolite conc. Final Acetate (fermentation cultures [2]; culture 1-3, […] DME): 47.46 mM
Metabolite conc. Final Acetoin (fermentation cultures [2]; culture 1-3, […] DME): 0.00 mM
Metabolite conc. Final Acetone (fermentation cultures [2]; culture 1-3, […] DME): 8.33 mM
Metabolite conc. Final Butanol (fermentation cultures [2]; culture 1-3, […] DME): 14.84 mM
Metabolite conc. Final Butyrate (fermentation cultures [2]; culture 1-3, […] DME): 89.52 mM
Metabolite conc. Final Ethanol (fermentation cultures [2]; culture 1-3, […] DME): 0.00 mM
Metabolite conc. Final Glucose (fermentation cultures [2]; culture 1-3, […] DME): 380.17 mM
Metabolite conc. Final Acetate (fermentation cultures [2]; [4]): 33.46 mM
Metabolite conc. Final Acetoin (fermentation cultures [2]; [4]): 0.00 mM
Metabolite conc. Final Acetone (fermentation cultures [2]; [4]): 0.00 mM
Metabolite conc. Final Butanol (fermentation cultures [2]; [4]): 0.00 mM
Metabolite conc. Final Butyrate (fermentation cultures [2]; [4]): 94.00 mM
Metabolite conc. Final Ethanol (fermentation cultures [2]; [4]): 0.00 mM
Metabolite conc. Final Glucose (fermentation cultures [2]; [4]): 432.02 mM
Metabolite conc. Final Acetate (fermentation cultures [2]; culture 2-2, 3.92% DME): 42.17 mM
Metabolite conc. Final Acetoin (fermentation cultures [2]; culture 2-2, 3.92% DME): 0.00 mM
Metabolite conc. Final Acetone (fermentation cultures [2]; culture 2-2, 3.92% DME): 0.00 mM
Metabolite conc. Final Butanol (fermentation cultures [2]; culture 2-2, 3.92% DME): 0.00 mM
Metabolite conc. Final Butyrate (fermentation cultures [2]; culture 2-2, 3.92% DME): 91.28 mM
Metabolite conc. Final Ethanol (fermentation cultures [2]; culture 2-2, 3.92% DME): 0.00 mM
Metabolite conc. Final Glucose (fermentation cultures [2]; culture 2-2, 3.92% DME): 418.43 mM
Acetone concentration (fermentation cultures [2]; culture 2-2, DME 6.8 g/L): 10.2 mM
Butanol concentration (fermentation cultures [2]; culture 2-2, DME 6.8 g/L): 23.6 mM
Butyrate concentration (fermentation cultures [2]; culture 2-2, DME 6.8 g/L): 55.7 mM
Ethanol concentration (fermentation cultures [2]; culture 2-2, DME 6.8 g/L): 3.8 mM
Metabolite conc. Final Acetate (fermentation cultures [2]; culture 2-3, 3.72% DME): 34.46 mM
Metabolite conc. Final Acetoin (fermentation cultures [2]; culture 2-3, 3.72% DME): 0,00 mM
Metabolite conc. Final Acetone (fermentation cultures [2]; culture 2-3, 3.72% DME): 0.00 mM
Metabolite conc. Final Butyrate (fermentation cultures [2]; culture 2-3, 3.72% DME): 86.91 mM
Metabolite conc. Final Ethanol (fermentation cultures [2]; culture 2-3, 3.72% DME): 0.00 mM
Acetate concentration (fermentation cultures [2]; culture 2-3, DME 6.6 g/L): 44.6 mM
Acetoin concentration (fermentation cultures [2]; culture 2-3, DME 6.6 g/L): 5.6 mM
Acetone concentration (fermentation cultures [2]; culture 2-3, DME 6.6 g/L): 9.6 mM
Butanol concentration (fermentation cultures [2]; culture 2-3, DME 6.6 g/L): 21.6 mM
Butyrate concentration (fermentation cultures [2]; culture 2-3, DME 6.6 g/L): 57.3 mM
Ethanol concentration (fermentation cultures [2]; culture 2-3, DME 6.6 g/L): 3.8 mM
Glucose concentration (fermentation cultures [2]; culture 2-3, DME 6.6 g/L): 338.3 mM
Acetate concentration (fermentation cultures [2]; culture 2-4, DME 29.1 g/L): 42.5 mM
Acetoin concentration (fermentation cultures [2]; culture 2-4, DME 29.1 g/L): 0.0 mM
Acetone concentration (fermentation cultures [2]; culture 2-4, DME 29.1 g/L): 2.1 mM
Butanol concentration (fermentation cultures [2]; culture 2-4, DME 29.1 g/L): 3.7 mM
Butyrate concentration (fermentation cultures [2]; culture 2-4, DME 29.1 g/L): 94.8 mM
Ethanol concentration (fermentation cultures [2]; culture 2-4, DME 29.1 g/L): 0.0 mM
Glucose concentration (fermentation cultures [2]; culture 2-4, DME 29.1 g/L): 403.0 mM
Acetate concentration (fermentation cultures [2]; culture 2-5, DME 27.9 g/L): 41.7 mM
Acetoin concentration (fermentation cultures [2]; culture 2-5, DME 27.9 g/L): 0.0 mM
Acetone concentration (fermentation cultures [2]; culture 2-5, DME 27.9 g/L): 4.3 mM
Butanol concentration (fermentation cultures [2]; culture 2-5, DME 27.9 g/L): 7.2 mM
Butyrate concentration (fermentation cultures [2]; culture 2-5, DME 27.9 g/L): 94.5 mM
Ethanol concentration (fermentation cultures [2]; culture 2-5, DME 27.9 g/L): 0.0 mM
Glucose concentration (fermentation cultures [2]; culture 2-5, DME 27.9 g/L): 396.9 mM
effect on solvent production (fermentation cultures [2]; cultures containing DME, 3 to 4 wt. %): greatly reduced
solubility in water [3]: approximately 20 wt. %
